According to patent publication US20260130906A1, “THERAPY COMPRISING ANTI-CD19 ANTIBODY AND SUMO-ACTIVATING ENZYME INHIBITOR” (TAKEDA PHARMACEUTICAL COMPANY LIMITED, priority 2021, published 2026):

Columns and labels:
[1] = system: OCI-Ly10 human xenograft tumor model; assay: Study 2: OCI-Ly10 human xenograft tumor model; type: in vivo, CB17 SCID mice; conditions: for GRI % / Tumor volume on Day 25 (±SEM): OCI-Ly10; for GRI %: Day 25, vs vehicle; for Tumor volume on Day 25 (±SEM): in mm³ (unit assumed); for tumor growth inhibition as a single agent (in words): human OCI-Ly10 DLBCL mouse model
Description: (§1) The differences in the tumor growth trends over time between pairs of treatment groups were assessed by fitting each animal's data to a simple exponential growth model and comparing the mean growth rates of the two groups, as described in more detail below. The difference in the growth rates was summarized by the GRI, which is the reduction in growth rate experienced by the treatment group relative to that of the reference group, expressed as a fraction of the vehicle growth rate.
(§2) A GRI greater than 100% is interpreted as tumor regression when the vehicle group is the same as the reference group. A negative value of the GRI means that the tumors in the treatment group grew faster than the tumors in the reference group. Statistical significance was determined using an unpaired t-test.
Low tumor volumes can cause problems with the data analysis, so all measurements below 25 cubic mm (including 0 values) were excluded from the analysis. After this exclusion step, the tumor volume was assumed to follow an exponential growth model. More specifically, for a given animal and treatment group,
Combination analysis was performed to determine if there was a benefit from combining drug treatments. This analysis was also based on the estimated tumor growth rates. The measure of synergy was defined as
Here, μAB, μA, μB, and μControl are the mean growth rates for the combination, drug A, drug B, and control groups, respectively. As before, μV is the mean tumor growth rate for the vehicle group, which in most cases is the same as the control group. The standard error of the synergy score was calculated as the square root of the sum of squared standard errors across the four groups. The degrees of freedom were estimated using the Welch-Satterthwaite equation. A hypothesis test was performed to determine if the synergy score differed from 0. P-values were calculated by dividing the synergy score by its standard error and tested against a t-distribution (two-tailed) with the above-calculated degrees of freedom. A P value of less than 0.05 is statistically significant.
The combination results can be interpreted as follows. Statistically significant negative synergy scores indicate a synergistic combination (“Syn.”). Statistically significant positive synergy scores indicate a sub-additive combination (“Sub-add.”) when the combination performs better (i.e. has a lower growth rate) than the best performing single agent. Statistically significant positive synergy scores indicate an antagonistic combination (“Antag.”) when the combination performs worse than the best performing single agent. Scores that are not statistically significant should be considered additive (“Add.”).
OCI-Ly10 is a human DLBCL cell line. An OCI-Ly10 human xenograft tumor model was generated by subcutaneous inoculation in the flank of 8 week old female CB17 SCID mice (Charles River Laboratories, Wilmington, MA) with 4.0×10^6 OCI-Ly10 cells (cell suspension in 0.1 ml IMDM with Matrigel 1:1). When the mean tumor volume reached approximately 175 mm^3, the animals were randomized into one vehicle control group and 7 treatment groups (n=7/group) as described in Table 2a. Mice were then dosed with 20% HPβCD or Compound I-263a and/or tafasitamab over a 3 week period. In the combination treatment groups, I-263a was administered first, followed immediately by the administration of tafasitamab. Tumor growth and body weight were measured twice per week during the treatment and post-treatment periods, and mice were humanely euthanized once they had reached their humane endpoint. Tumors were measured using Vernier calipers and volumes were calculated using standard equation: V=W^2×L/2, where V=volume, W=width, and L=length for the tumor.
A 0.75 mg/mL stock solution of I-263a was formulated weekly in 20% HPβCD and administered intravenously (IV) based on an average body weight using a 0.2 mL dosing volume. Final dose of I-263a received was 7.5 mg/kg. […]

[2] = system: WSU-DLCL2 human xenograft tumor model; assay: Study 3: WSU-DLCL2 human xenograft tumor model; type: in vivo, CB17 SCID mice; conditions: for GRI % / Tumor volume on Day 21 (±SEM): WSU-DLCL2; for GRI %: Day 21, vs vehicle; for Tumor volume on Day 21 (±SEM): in mm³ (unit assumed); for tumor growth inhibition as single agents (in words): WSU-DLCL2 human DLBCL mouse model
Description: as §1, §2
Low tumor volumes can cause problems with the data analysis, so all measurements below 25 cubic mm (including 0 values) were excluded from the analysis. After this exclusion step, the tumor volume was assumed to follow an exponential growth model. […]
WSU-DLCL2 is a human DLBCL cell line. A WSU-DLCL2 human xenograft tumor model was generated by subcutaneous inoculation in the flank of 8 week old female CB17 SCID mice (Charles River Laboratories, Wilmington, MA) with 4.0×10^6 WSU-DLCL2 cells (cell suspension in 0.1 mL RPMI 1640 media). When the mean tumor volume reached approximately 200 mm^3, the animals were randomized into one vehicle control group and seven treatment groups (n=7/group) as described in Table 3a. Mice were then dosed with 20% HPβCD or Compound I-263a and/or tafasitamab over a 3 week period. In the combination treatment groups, I-263a was administered first, followed immediately by the administration of tafasitamab. Tumor growth and body weight were measured twice per week during the treatment and post-treatment periods, and mice were humanely euthanized once they had reached their humane endpoint. Tumors were measured using Vernier calipers and volumes were calculated using standard equation: V=W^2×L/2, where V=volume, W=width, and L=length for the tumor.
A 0.8625 mg/mL stock solution of I-263a was formulated weekly in 20% HPβCD and administered intravenously (IV) based on an average body weight using a 0.2 mL dosing volume. Final dose of I-263a received was 7.5 mg/kg. I-263a was administered on a BIW schedule for 3 weeks (Days 1, 4, 8, 11, 15, 18). Tafasitamab was formulated prior to each injection in 0.9% saline at 0.6 mg/mL and 2.0 mg/mL. Final dose of tafasitamab received was 3, 10, or 20 mg/kg based on average body weight. Tafasitamab was administered intraperitoneally (IP) on a BIW schedule for 3 weeks (Days 1, 4, 8, 11, 15, 18). For the 3 mg/kg dose level, 0.1 mL of the 0.6 mg/mL solution was administered. For the 10 mg/kg and 20 mg/kg dose levels, dosing volumes of the 2.0 mg/mL solution were 0.1 mL and 0.2 mL, respectively. The vehicle group received IV treatment with the vehicle for I-263a (20% HPβCD) on a BIW schedule for three weeks (Days 1, 4, 8, 11, 15, 18).
Statistical analysis for growth rate inhibition was performed on data up to and including Day 21.

[3] = I-263a 7.5 mg/kg IV BIW 3 weeks
[4] = tafasitamab 3 mg/kg IP BIW 3 weeks
[5] = tafasitamab 10 mg/kg IP BIW 3 weeks
[6] = tafasitamab 20 mg/kg IP BIW 3 weeks

## Cc1sc(C(=O)c2cncnc2N[C@@H]2C[C@H](COS(N)(=O)=O)[C@@H](O)C2)cc1[C@@H]1NCCc2ccc(Cl)cc21 [Compound I-263a, [(1R,2S,4R)-4-{[5-({4-[(1R)-7-chloro-1,2,3,4-tetrahydroisoquinolin-1-yl]-5-methyl-2-thienyl}carbonyl)pyrimidin-4-yl]amino}-2-hydroxycyclopentyl]methyl sulfamate]
[1]; I-263a 7.5 mg/kg IV BIW
  GRI %: 55%
[1]; [3]
  Tumor volume on Day 25 (±SEM): 615.9 ± 106.4
[1]
  tumor growth inhibition as a single agent (in words): inhibits tumor growth
[2]; I-263a 7.5 mg/kg IV BIW, 7.5 mg/kg
  GRI %: 14%
[2]; I-263a 7.5 mg/kg IV BIW, listed as TAK-981
  GRI %: did not result in significant growth rate inhibition
[2]; [3]
  Tumor volume on Day 21 (±SEM): 1410.7 ± 155.8
[2]
  tumor growth inhibition as single agents (in words): do not show significant or extensive tumor growth inhibition

## Tafasitamab: humanized monoclonal antibody that targets the antigen CD19, engineered in the IgG Fc-region to enhance ADCC; sequences in Table 1
[1]; tafasitamab 3 mg/kg IP BIW
  GRI %: 37%
[1]; tafasitamab 10 mg/kg IP BIW
  GRI %: 43%
[1]; tafasitamab 20 mg/kg IP BIW
  GRI %: 36%
[1]; [4]
  Tumor volume on Day 25 (±SEM): 701 ± 94.2
[1]; [5]
  Tumor volume on Day 25 (±SEM): 745.1 ± 154.2
[1]; [6]
  Tumor volume on Day 25 (±SEM): 809.2 ± 129.1
[1]
  tumor growth inhibition as a single agent (in words): inhibits tumor growth
[2]; tafasitamab 3 mg/kg IP BIW
  GRI %: 20%
[2]; tafasitamab 10 mg/kg IP BIW
  GRI %: 12%
[2]; tafasitamab 10 mg/kg IP BIW, listed as tafasitamab
  GRI %: did not result in significant growth rate inhibition
[2]; tafasitamab 20 mg/kg IP BIW
  GRI %: 2%
[2]; tafasitamab 20 mg/kg IP BIW, listed as tafasitamab
  GRI %: did not result in significant growth rate inhibition
[2]; [4]
  Tumor volume on Day 21 (±SEM): 1197.3 ± 168.3
[2]; [5]
  Tumor volume on Day 21 (±SEM): 1494.3 ± 126.3
[2]; [6]
  Tumor volume on Day 21 (±SEM): 1519.0 ± 110.8
[2]
  tumor growth inhibition as single agents (in words): do not show significant or extensive tumor growth inhibition
